From PubChem BioAssay (NCI)
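Compound exposure: 48 hours, 5 concentrations, 96-well plates. GI50 is the concentration that inhibits growth by half. TGI: concentration producing complete growth inhibition.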

Experiments:
Assay in all cases: NCI anticancer screen, dose series, 48 h
IGROV1 ovarian = test system: IGROV1 ovarian
HCT-15 colon = test system: HCT-15 colon
SF-295 CNS = test system: SF-295 CNS
SN12C renal = test system: SN12C renal
HT29 colon = test system: HT29 colon
RXF 393 renal = test system: RXF 393 renal
OVCAR-5 ovarian = test system: OVCAR-5 ovarian
HOP-62 NSCLC = test system: HOP-62 NSCLC
OVCAR-3 ovarian = test system: OVCAR-3 ovarian
786-0 renal = test system: 786-0 renal
MOLT-4 leukemia = test system: MOLT-4 leukemia
U251 CNS = test system: U251 CNS
TK-10 renal = test system: TK-10 renal
BT-549 breast = test system: BT-549 breast
A498 renal = test system: A498 renal
HS 578T breast = test system: HS 578T breast
OVCAR-4 ovarian = test system: OVCAR-4 ovarian
MALME-3M melanoma = test system: MALME-3M melanoma
SR leukemia = test system: SR leukemia
UACC-62 melanoma = test system: UACC-62 melanoma
SW-620 colon = test system: SW-620 colon
UACC-257 melanoma = test system: UACC-257 melanoma
MDA-MB-435 = test system: MDA-MB-435
NCI-H460 lung = test system: NCI-H460 lung
MCF7 breast = test system: MCF7 breast
KM12 colon = test system: KM12 colon
SF-268 CNS = test system: SF-268 CNS
MDA-MB-231 breast = test system: MDA-MB-231 breast
NCI/ADR-RES ovarian = test system: NCI/ADR-RES ovarian
CAKI-1 renal = test system: CAKI-1 renal
HL-60(TB) leukemia = test system: HL-60(TB) leukemia
COLO 205 colon = test system: COLO 205 colon
T-47D breast = test system: T-47D breast
SK-MEL-5 melanoma = test system: SK-MEL-5 melanoma
SK-MEL-2 melanoma = test system: SK-MEL-2 melanoma
SK-MEL-28 melanoma = test system: SK-MEL-28 melanoma
ACHN renal = test system: ACHN renal
RPMI-8226 leukemia = test system: RPMI-8226 leukemia
A549 NSCLC = test system: A549 NSCLC
UO-31 renal = test system: UO-31 renal
SNB-75 CNS = test system: SNB-75 CNS
HOP-92 NSCLC = test system: HOP-92 NSCLC
SNB-19 CNS = test system: SNB-19 CNS
HCT-116 colon = test system: HCT-116 colon
NCI-H23 lung = test system: NCI-H23 lung
SK-OV-3 ovarian = test system: SK-OV-3 ovarian
K-562 leukemia = test system: K-562 leukemia
NCI-H522 lung = test system: NCI-H522 lung
OVCAR-8 ovarian = test system: OVCAR-8 ovarian
SF-539 CNS = test system: SF-539 CNS
NCI-H226 lung = test system: NCI-H226 lung
DU-145 prostate = test system: DU-145 prostate
CCRF-CEM leukemia = test system: CCRF-CEM leukemia
EKVX NSCLC = test system: EKVX NSCLC
PC-3 prostate = test system: PC-3 prostate
LOX IMVI melanoma = test system: LOX IMVI melanoma
M14 melanoma = test system: M14 melanoma
HCC-2998 colon = test system: HCC-2998 colon

## Clc1cc(Cl)c(Cl)c(-c2nc(-c3cccnc3)cs2)c1
IGROV1 ovarian
  GI50: 32.8 µM
  TGI: > 100 µM
HCT-15 colon
  GI50: 16 µM
  TGI: 42.5 µM
SF-295 CNS
  GI50: 26.2 µM
  TGI: 70.4 µM
SN12C renal
  GI50: 24.9 µM
  TGI: > 100 µM
HT29 colon
  GI50: 12.1 µM
  TGI: > 100 µM
RXF 393 renal
  GI50: 10.9 µM
  TGI: 35.2 µM
OVCAR-5 ovarian
  GI50: 32.3 µM
  TGI: 92.8 µM
HOP-62 NSCLC
  GI50: 23.5 µM
  TGI: 83.8 µM
OVCAR-3 ovarian
  GI50: 16.2 µM
  TGI: 81.9 µM
786-0 renal
  GI50: 12.9 µM
  TGI: 29.8 µM
MOLT-4 leukemia
  GI50: 39.1 µM
  TGI: > 100 µM
U251 CNS
  GI50: 37.8 µM
  TGI: > 100 µM
TK-10 renal
  GI50: 20.5 µM
  TGI: 56.6 µM
BT-549 breast
  GI50: 20.6 µM
  TGI: 70.2 µM
A498 renal
  GI50: 53.9 µM
  TGI: > 100 µM
HS 578T breast
  GI50: 18.6 µM
  TGI: 55.5 µM
OVCAR-4 ovarian
  GI50: 25.6 µM
  TGI: 98.8 µM
MALME-3M melanoma
  GI50: 18.8 µM
  TGI: 51.4 µM
SR leukemia
  GI50: > 100 µM
  TGI: > 100 µM
UACC-62 melanoma
  GI50: 24 µM
  TGI: 73.3 µM
SW-620 colon
  GI50: 9.34 µM
  TGI: 23.6 µM
UACC-257 melanoma
  GI50: 15.3 µM
  TGI: 64.8 µM
MDA-MB-435
  GI50: 3.39 µM
  TGI: 29.2 µM
NCI-H460 lung
  GI50: 37.7 µM
  TGI: > 100 µM
MCF7 breast
  GI50: 10.4 µM
  TGI: > 100 µM
KM12 colon
  GI50: 51.4 µM
  TGI: > 100 µM
SF-268 CNS
  GI50: 17.9 µM
  TGI: 69.8 µM
MDA-MB-231 breast
  GI50: 53 µM
  TGI: > 100 µM
NCI/ADR-RES ovarian
  GI50: 8.78 µM
  TGI: > 100 µM
CAKI-1 renal
  GI50: 7.43 µM
  TGI: 78.7 µM
HL-60(TB) leukemia
  GI50: 14.3 µM
  TGI: > 100 µM
COLO 205 colon
  GI50: 13.6 µM
  TGI: 41.4 µM
T-47D breast
  GI50: 12.7 µM
  TGI: 65.4 µM
SK-MEL-5 melanoma
  GI50: 23.6 µM
  TGI: > 100 µM
SK-MEL-2 melanoma
  GI50: 22.1 µM
  TGI: 81.9 µM
SK-MEL-28 melanoma
  GI50: 12.9 µM
  TGI: 34.8 µM
ACHN renal
  GI50: 22.2 µM
  TGI: 72.3 µM
RPMI-8226 leukemia
  GI50: 17.9 µM
  TGI: 80.8 µM
A549 NSCLC
  GI50: 24.8 µM
  TGI: > 100 µM
UO-31 renal
  GI50: 31 µM
  TGI: > 100 µM
SNB-75 CNS
  GI50: 23 µM
  TGI: 80.6 µM
HOP-92 NSCLC
  GI50: 15.4 µM
  TGI: 48.1 µM
SNB-19 CNS
  GI50: 66.2 µM
  TGI: > 100 µM
HCT-116 colon
  GI50: 5.3 µM
  TGI: > 100 µM
NCI-H23 lung
  GI50: 30 µM
  TGI: > 100 µM
SK-OV-3 ovarian
  GI50: > 100 µM
  TGI: > 100 µM
K-562 leukemia
  GI50: > 100 µM
  TGI: > 100 µM
NCI-H522 lung
  GI50: 9.22 µM
  TGI: 38.3 µM
OVCAR-8 ovarian
  GI50: 14.3 µM
  TGI: 66.5 µM
SF-539 CNS
  GI50: 10.7 µM
  TGI: 25.4 µM
NCI-H226 lung
  GI50: 27.4 µM
  TGI: 85.8 µM
DU-145 prostate
  GI50: 2.55 µM
  TGI: 96.2 µM
CCRF-CEM leukemia
  GI50: 8.52 µM
  TGI: 42 µM
EKVX NSCLC
  GI50: 40.2 µM
  TGI: > 100 µM
PC-3 prostate
  GI50: 59.4 µM
  TGI: > 100 µM
LOX IMVI melanoma
  GI50: 16 µM
  TGI: 37.6 µM
M14 melanoma
  GI50: 4.47 µM
  TGI: > 100 µM

## Cn1cccc1-c1cc(-c2cccs2)[nH]c(=O)c1C#N
IGROV1 ovarian
  GI50: 23 µM
  TGI: > 100 µM
HCT-15 colon
  GI50: > 100 µM
  TGI: > 100 µM
SF-295 CNS
  GI50: > 100 µM
  TGI: > 100 µM
SN12C renal
  GI50: > 100 µM
  TGI: > 100 µM
HT29 colon
  GI50: > 100 µM
  TGI: > 100 µM
RXF 393 renal
  GI50: > 100 µM
  TGI: > 100 µM
OVCAR-5 ovarian
  GI50: > 100 µM
  TGI: > 100 µM
HOP-62 NSCLC
  GI50: 83.9 µM
  TGI: > 100 µM
OVCAR-3 ovarian
  GI50: > 100 µM
  TGI: > 100 µM
786-0 renal
  GI50: > 100 µM
  TGI: > 100 µM
MOLT-4 leukemia
  GI50: > 100 µM
  TGI: > 100 µM
U251 CNS
  GI50: > 100 µM
  TGI: > 100 µM
TK-10 renal
  GI50: > 100 µM
  TGI: > 100 µM
BT-549 breast
  GI50: > 100 µM
  TGI: > 100 µM
A498 renal
  GI50: 17.9 µM
  TGI: > 100 µM
HCC-2998 colon
  GI50: > 100 µM
  TGI: > 100 µM
HS 578T breast
  GI50: > 100 µM
  TGI: > 100 µM
OVCAR-4 ovarian
  GI50: > 100 µM
  TGI: > 100 µM
MALME-3M melanoma
  GI50: > 100 µM
  TGI: > 100 µM
SR leukemia
  GI50: > 100 µM
  TGI: > 100 µM
UACC-62 melanoma
  GI50: 73.1 µM
  TGI: > 100 µM
SW-620 colon
  GI50: > 100 µM
  TGI: > 100 µM
UACC-257 melanoma
  GI50: > 100 µM
  TGI: > 100 µM
MDA-MB-435
  GI50: > 100 µM
  TGI: > 100 µM
NCI-H460 lung
  GI50: 69.6 µM
  TGI: > 100 µM
MCF7 breast
  GI50: > 100 µM
  TGI: > 100 µM
KM12 colon
  GI50: > 100 µM
  TGI: > 100 µM
SF-268 CNS
  GI50: 20.6 µM
  TGI: > 100 µM
MDA-MB-231 breast
  GI50: > 100 µM
  TGI: > 100 µM
NCI/ADR-RES ovarian
  GI50: > 100 µM
  TGI: > 100 µM
CAKI-1 renal
  GI50: > 100 µM
  TGI: > 100 µM
COLO 205 colon
  GI50: > 100 µM
  TGI: > 100 µM
T-47D breast
  GI50: > 100 µM
  TGI: > 100 µM
SK-MEL-5 melanoma
  GI50: > 100 µM
  TGI: > 100 µM
SK-MEL-2 melanoma
  GI50: > 100 µM
  TGI: > 100 µM
SK-MEL-28 melanoma
  GI50: > 100 µM
  TGI: > 100 µM
ACHN renal
  GI50: > 100 µM
  TGI: > 100 µM
RPMI-8226 leukemia
  GI50: > 100 µM
  TGI: > 100 µM
A549 NSCLC
  GI50: > 100 µM
  TGI: > 100 µM
UO-31 renal
  GI50: 13.8 µM
  TGI: 27.5 µM
SNB-75 CNS
  GI50: 37.7 µM
  TGI: > 100 µM
SNB-19 CNS
  GI50: > 100 µM
  TGI: > 100 µM
HCT-116 colon
  GI50: > 100 µM
  TGI: > 100 µM
NCI-H23 lung
  GI50: > 100 µM
  TGI: > 100 µM
SK-OV-3 ovarian
  GI50: > 100 µM
  TGI: > 100 µM
K-562 leukemia
  GI50: > 100 µM
  TGI: > 100 µM
NCI-H522 lung
  GI50: 25.9 µM
  TGI: > 100 µM
OVCAR-8 ovarian
  GI50: > 100 µM
  TGI: > 100 µM
SF-539 CNS
  GI50: > 100 µM
  TGI: > 100 µM
NCI-H226 lung
  GI50: > 100 µM
  TGI: > 100 µM
DU-145 prostate
  GI50: > 100 µM
  TGI: > 100 µM
CCRF-CEM leukemia
  GI50: > 100 µM
  TGI: > 100 µM
EKVX NSCLC
  GI50: 52.3 µM
  TGI: > 100 µM
PC-3 prostate
  GI50: > 100 µM
  TGI: > 100 µM
LOX IMVI melanoma
  GI50: > 100 µM
  TGI: > 100 µM
